Test results from ChEMBL document CHEMBL5365470, “Design, synthesis, and biological evaluation of THIQ as antidepressive agents” (Bioorg Med Chem Lett, 2023).

Assays:
[1] = Cytoprotective activity against corticosterone-induced […] PC12 cell damage assessed as cell viability at 50 uM (reference value: 51.13 to 51.51 %); type: functional; settings: Rattus norvegicus, PC-12, read-out: Activity
[2] = Toxicity in […] PC12 cells at 50 uM; type: cell-based, Rattus norvegicus; settings: pc12, 50 µM
[3] = Toxicity in SPF ICR mouse assessed as body weight at 7 mg/kg, po via gavage administered daily for 7 days measured on day 7 (reference value: 29.54 +/- 1.87 g); type: organism-based; settings: in vivo, 168 h, time 7 day
[4] = Toxicity in SPF ICR mouse assessed as body weight at 7 mg/kg, po administered via gavage measured on day 1 (reference value: 22.24 +/- 0.9 g); type: organism-based; settings: in vivo, 24 h, time 1 day
[5] = Cytoprotective activity against corticosterone-induced […] PC12 cells assessed as cell survival at 10 uM preincubated for 1 hr followed by corticosterone stimulation and measured after 24 hrs (reference value: 51.13 to 51.51 %); type: functional; settings: PC-12, time 25 hrs, read-out: Activity
[6] = Cytoprotective activity against corticosterone-induced […] PC12 cells assessed as cell survival at 5 uM preincubated for 1 hr followed by corticosterone stimulation and measured after 24 hrs (reference value: 51.13 to 51.51 %); type: functional; settings: PC-12, time 25 hrs, read-out: Activity
[7] = Cytoprotective activity against corticosterone-induced […] PC12 cell damage assessed as cell viability at 50 uM preincubated for 1 hr followed by corticosterone stimulation and measured after 24 hrs (reference value: 51.13 to 51.51 %); type: functional; settings: PC-12, time 25 hrs, read-out: Activity
[8] = Toxicity in SPF ICR mouse assessed as body weight growth at 7 mg/kg, po via gavage administered daily for 7 days (reference value: 32.62 +/- 6.17 %); type: organism-based; settings: in vivo, 168 h, time 7 day
[9] = test system: Mus musculus; assay: Antidepressant activity in SPF ICR mouse assessed as decrease in immobility duration at 7 mg/kg, po via gavage administered daily for 7 days measured post-last dose by forced swimming test relative to control; type: functional; set-up: scale not given: the % may be the effect or the level left; settings: time 7 day
[10] = test system: Mus musculus; assay: Antidepressant activity in SPF ICR mouse assessed as decrease in immobility duration at 7 mg/kg, po via gavage administered daily for 7 days measured post-last dose by tail suspension test relative to control; type: functional; set-up: scale not given: the % may be the effect or the level left; settings: time 7 day
[11] = Cytoprotective activity against corticosterone-induced […] PC12 cell damage assessed as cell viability at 5 uM (reference value: 51.13 to 51.51 %); type: functional; settings: PC-12, read-out: Activity
[12] = test system: PC12; assay: Cytoprotective activity against corticosterone-induced […] PC12 cell damage assessed as increase in cell survival; type: functional, cell-based; settings: dose 5-50 µM
[13] = Cytoprotective activity against corticosterone-induced […] PC12 cell damage assessed as cell viability at 10 uM (reference value: 51.13 to 51.51 %); type: functional; settings: PC-12, read-out: Activity

SMILES | viability at 50 µM [1] [%] | Activity [2] | other results
COc1cc2c(cc1OC)CN(CCc1ccccc1)CC2 | 54.2 | Non-Toxic | –
COc1cc2c(cc1OC)CN(C(=O)c1ccncc1)CC2 | 51.2 | – | –
COc1cc2c(cc1OC)CN(C(=O)c1ccccc1)CC2 | 35.6 | Toxic | –
COc1ccc(CCCN2CCc3cc(OC)c(OC)cc3C2)cc1 | 51.8 | Non-Toxic | –
COc1cc2c(cc1OC)CN(Cc1ccc(F)cc1)CC2 | 49.5 | Non-Toxic | –
COc1ccc(C(=O)N2CCc3cc(OC)c(OC)cc3C2)cc1 | 44.8 | Toxic | –
COc1cc2c(cc1OC)CN(C(=O)c1ccccc1O)CC2 | 47.3 | Toxic | –
COc1cc2c(cc1OC)CN(C(=O)c1cc3ccccc3[nH]1)CC2 | 62.8 | – | –
COc1ccc(CN2CCc3cc(OC)c(OC)cc3C2)cc1 | 51.8 | Non-Toxic | –
COc1cc2c(cc1OC)CN(C=O)CC2 | 49.9 | Toxic | –
COc1cc2c(cc1OC)CN(C(=O)c1ccc(F)cc1)CC2 | 49.6 | Toxic | –
COc1ccc2c(c1O)-c1c(O)c(OC)cc3c1[C@H](C2)[N+](C)(C)CC3 [MAGNOFLORINE] | – | – | Activity [3]: 29.44 g; Activity [4]: 24.21 g; viability at 10 µM [5]: 73.7%; viability at 5 µM [6]: 48.6%; viability at 50 µM [7]: 48.6%; Activity [8]: 21.15%; Activity [9]: 68.61%; Activity [10]: 65.65%
COc1cc2c(cc1OC)CN(C(=O)c1cccs1)CC2 | 58.5 | – | –
COc1cc2c(cc1OC)CN(C(=O)Cc1ccc(O)cc1)CC2 | 42.4 | Toxic | –
COc1cc2c(cc1OC)CN(C(C)=O)CC2 | 37.2 | Toxic | –
COc1cc2c(cc1OC)CN(C)CC2 | 54.5 | Non-Toxic | –
COc1ccc(CCN2CCc3cc(OC)c(OC)cc3C2)cc1 | 69.3 | Non-Toxic | Activity [3]: 27.5 g; Activity [4]: 21.3 g; viability at 5 µM [11]: 49.1%; Activity [12]: Dose-Dependent Effect; viability at 10 µM [13]: 65%; Activity [8]: 29.58%; Activity [9]: 57.65%; Activity [10]: 65.85%
COc1cc2c(cc1OC)CN(C(=O)c1ccc(O)cc1)CC2 | 39.8 | Toxic | –
CCN1CCc2cc(OC)c(OC)cc2C1 | 58.9 | Non-Toxic | –
COc1cc2c(cc1OC)CN(C(=O)c1ccc(C(F)(F)F)cc1)CC2 | 48.3 | Toxic | –
COc1cc2c(cc1OC)CN(CCc1ccc(F)cc1)CC2 | 38.2 | – | –
COc1ccc(CC(=O)N2CCc3cc(OC)c(OC)cc3C2)cc1 | 51.9 | – | –
COc1cc2c(cc1OC)CN(C(=O)C(C)(C)C)CC2 | 33.7 | Toxic | –
COc1cc2c(cc1OC)CNCC2 | 45.8 | – | viability at 5 µM [11]: 65.7%; viability at 10 µM [13]: 57%
COc1cc2c(cc1OC)CN(Cc1ccccc1)CC2 | 49.6 | Non-Toxic | –
COc1cc2c(cc1OC)CN(CCc1ccc(O)cc1)CC2 | 50.4 | Non-Toxic | –
COc1cc2c(cc1OC)CN(C(=O)c1ccc(OC(C)=O)cc1)CC2 | 48.4 | Toxic | –
